# Source: patent US8501946B2 (Glaxo Group Limited, priority 2009, dated 2013)
# Target: T1, human recombinant P2X7 receptors (Homo sapiens, UniProt Q99572)
# T1 construct: expressed in transfected cells
# T1 sequence (Q99572 1-595): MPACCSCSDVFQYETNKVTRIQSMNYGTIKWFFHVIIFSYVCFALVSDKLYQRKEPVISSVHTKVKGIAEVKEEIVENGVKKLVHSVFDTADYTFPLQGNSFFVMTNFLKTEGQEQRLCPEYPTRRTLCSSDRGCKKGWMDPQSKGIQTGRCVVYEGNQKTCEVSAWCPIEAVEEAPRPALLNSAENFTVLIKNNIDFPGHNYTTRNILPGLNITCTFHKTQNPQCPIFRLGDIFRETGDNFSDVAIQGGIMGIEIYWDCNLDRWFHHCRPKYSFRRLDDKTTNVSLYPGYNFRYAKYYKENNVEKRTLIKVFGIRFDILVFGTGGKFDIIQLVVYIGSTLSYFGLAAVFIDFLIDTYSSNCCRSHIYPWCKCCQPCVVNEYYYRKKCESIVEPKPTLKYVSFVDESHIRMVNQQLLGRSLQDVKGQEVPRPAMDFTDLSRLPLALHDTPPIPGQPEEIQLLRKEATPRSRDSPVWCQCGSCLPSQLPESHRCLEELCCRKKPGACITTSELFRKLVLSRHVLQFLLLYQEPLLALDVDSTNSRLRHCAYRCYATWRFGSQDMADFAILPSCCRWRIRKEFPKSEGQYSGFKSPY
# Assay: Ethidium Accumulation Assay 1 (HEK293 cells, ATP-induced ethidium uptake)
# Assay type: cell-based
# Conditions: HEK293 cells expressing human P2X7; 1 mM ATP; sometimes mean of more than one measurement; read-out: Assay 1 (antagonist pIC50 for blocking ATP responses) (converted)
# Protocol: Eithidium Accumulation Assay 1
# Studies were performed using NaCl assay buffer of the following composition: 140 mM NaCl, 10 mM HEPES [4-(2-hydroxyethyl)-1-piperazine-1-ethanesulfonic acid], 5 mM N-methyl-D-glucamine, 5.6 mM KCl, 10 mM D-glucose, 0.5 mM CaCl2 (pH 7.4).
# Human Embryonic Kidney (HEK) 293 cells, stably expressing human recombinant P2X7 receptors, were grown in poly-D-lysine pretreated 96 well plates for 18-24 hours.
# The cells were washed twice with 350 μl of the assay buffer, before addition of 50 μl of the assay buffer containing the putative P2X7 receptor antagonist compound. (A small amount of dimethyl sulfoxide, for initially dissolving the compound, is optionally used and present in this 50 μl test compound sample.) The cells were then incubated at room temperature (19-21° C.) for 30 min before addition of ATP and ethidium (100 μM final assay concentration). The ATP concentration was chosen to be close to the EC80 for the receptor type and was 1 mM for studies on the human P2X7 receptor. Incubations were continued for 8 or 16 min and were terminated by addition of 25 μl of 1.3M sucrose containing 4 mM of the P2X7 receptor antagonist Reactive Black 5 (Aldrich). […] Antagonist pIC50 values for blocking ATP responses were determined using iterative curve fitting techniques.
row,Structure (SMILES),IC50 [nM]
1,"O=C(c1ccc(F)cc1Cl)N1CCn2c(nnc2-c2cccc(F)c2)C1 [Example 123, 7-[(2-chloro-4-fluorophenyl)carbonyl]-3-(3-fluorophenyl)-5,6,7,8-tetrahydro[1,2,4]triazolo[4,3-a]pyrazine]",< 100
2,"O=C(c1ccc(F)cc1Cl)N1CCn2c(nnc2-c2cccnc2)C1 [Example 39, 7-[(2-chloro-4-fluorophenyl)carbonyl]-3-(3-pyridinyl)-5,6,7,8-tetrahydro[1,2,4]triazolo [4,3-a]pyrazine]",< 100
3,"Cn1ccnc1-c1nnc2n1CCN(C(=O)c1ccc(F)cc1Cl)C2 [Example 140, 7-[(2-chloro-4-fluorophenyl)carbonyl]-3-(1-methyl-1H-imidazol-2-yl)-5,6,7,8-tetrahydro[1,2,4]triazolo[4,3-a]pyrazine]",< 501
4,"O=C(c1ccc(Cl)cc1F)N1CCn2c(nnc2-c2ccccn2)C1 [Example 96, 7-[(4-chloro-2-fluorophenyl)carbonyl]-3-(2-pyridinyl)-5,6,7,8-tetrahydro[1,2,4]triazolo [4,3-a]pyrazine]",< 100
5,"O=C(c1cccc(C(F)(F)F)c1Cl)N1CCn2c(nnc2-c2cccnc2)C1 [Example 16, 7-{[2-Chloro-3-(trifluoromethyl)phenyl]carbonyl}-3-(3-pyridinyl)-5,6,7,8-tetrahydro[1,2,4]triazolo[4,3-a]pyrazine]",< 10
6,"O=C(c1ccc(F)cc1Cl)N1CCn2c(nnc2-c2ccccn2)C1 [Example 37, 7-[(2-chloro-4-fluorophenyl)carbonyl]-3-(2-pyridinyl)-5,6,7,8-tetrahydro[1,2,4]triazolo [4,3-a]pyrazine]",< 10
7,"O=C(c1cccc(C(F)(F)F)c1Cl)N1CCn2c(nnc2-c2ccncn2)C1 [Example 12, 7-{[2-chloro-3-(trifluoromethyl)phenyl]carbonyl}-3-(4-pyrimidinyl)-5,6,7,8-tetrahydro[1,2,4]triazolo[4,3-a]pyrazine]",< 100
8,"O=C(c1cccc(C(F)(F)F)c1Cl)N1CCn2c(nnc2-c2ccc(F)cc2F)C1 [Example 24, 7-{[2-Chloro-3-(trifluoromethyl)phenyl]carbonyl}-3-(2,4-difluorophenyl)-5,6,7,8-tetrahydro[1,2,4]triazolo[4,3-a]pyrazine]",< 100
9,"O=C(c1cccc(C(F)(F)F)c1Cl)N1CCn2c(nnc2N2CCCCC2)C1 [Example 23, 7-{[2-chloro-3-(trifluoromethyl)phenyl]carbonyl}-3-(1-piperidinyl)-5,6,7,8-tetrahydro[1,2,4]triazolo [4,3-a]pyrazine]",< 100
10,"O=C(c1ccc(F)cc1Cl)N1CCn2c(nnc2-c2cccc(Cl)c2Cl)C1 [Example 130, 7-[(2-chloro-4-fluorophenyl)carbonyl]-3-(2,3-dichlorophenyl)-5,6,7,8-tetrahydro[1,2,4]triazolo[4,3-a]pyrazine]",< 100
11,"O=C(c1ccc(F)c(C(F)(F)F)c1)N1CCn2c(nnc2-c2cnccn2)C1 [Example 108, 7-{[4-fluoro-3-(trifluoromethyl)phenyl]carbonyl}-3-(2-pyrazinyl)-5,6,7,8-tetrahydro[1,2,4]triazolo [4,3-a]pyrazine]",< 100
12,"O=C(c1ccc(Cl)cc1Cl)N1CCn2c(nnc2-c2ccc(F)cn2)C1 [Example 95, 7-[(2,4-dichlorophenyl)carbonyl]-3-(5-fluoro-2-pyridinyl)-5,6,7,8-tetrahydro[1,2,4]triazolo [4,3-a]pyrazine]",< 100
13,"Cn1ccc(-c2nnc3n2CCN(C(=O)c2cccc(C(F)(F)F)c2Cl)C3)n1 [Example 27, 7-{[2-chloro-3-(trifluoromethyl)phenyl]carbonyl}-3-(1-methyl-1H-pyrazol-3-yl)-5,6,7,8-tetrahydro[1,2,4]triazolo [4,3-a]pyrazine]",< 10
14,O=C(c1cccc(C(F)(F)F)c1)N1CCn2c(nnc2-c2ccccn2)C1 [Example 86],< 100
15,"O=C(c1ccc(F)c(Cl)c1)N1CCn2c(nnc2-c2cnccn2)C1 [Example 105, 7-[(3-chloro-4-fluorophenyl)carbonyl]-3-(2-pyrazinyl)-5,6,7,8-tetrahydro[1,2,4]triazolo [4,3-a]pyrazine]",< 100
16,"O=C(c1cccc(C(F)(F)F)c1Cl)N1CCn2c(Br)nnc2C1 [Example 1, 3-Bromo-7-{[2-chloro-3-(trifluoromethyl)phenyl]carbonyl}-5,6,7,8-tetrahydro[1,2,4]triazolo[4,3-a]pyrazine]",< 10
17,"O=C(c1cccc(C(F)(F)F)c1Cl)N1CCn2c(nnc2N2CCC2)C1 [Example 22, 3-(1-azetidinyl)-7-{[2-chloro-3-(trifluoromethyl)phenyl]carbonyl}-5,6,7,8-tetrahydro[1,2,4]triazolo [4,3-a]pyrazine]",< 100

# Second part, the molecule after the results:
row,IC50 [nM],Structure (SMILES)
1,< 100,"N#Cc1ccccc1C(=O)N1CCn2c(nnc2-c2ccccn2)C1 [Example 87, 2-{[3-(2-pyridinyl)-5,6-dihydro[1,2,4]triazolo[4,3-a]pyrazin-7(8H)-yl]carbonyl}benzonitrile]"
2,< 10,"O=C(c1cccc(Cl)c1Cl)N1CCn2c(nnc2-c2ccncn2)C1 [Example 62, 7-[(2,3-dichlorophenyl)carbonyl]-3-(4-pyrimdiinyl)-5,6,7,8-tetrahydro[1,2,4]triazolo [4,3-a]pyrazine]"
3,< 100,"O=C(c1ccc(Cl)cc1Cl)N1CCn2c(nnc2-c2ccncn2)C1 [Example 102, 7-[(2,4-dichlorophenyl)carbonyl]-3-(4-pyrimidinyl)-5,6,7,8-tetrahydro[1,2,4]triazolo [4,3-a]pyrazine]"
4,< 10,"Cc1ccnc(-c2nnc3n2CCN(C(=O)c2cccc(C(F)(F)F)c2Cl)C3)c1 [Example 56, 7-{[2-chloro-3-(trifluoromethyl)phenyl]carbonyl}-3-(4-methyl-2-pyridinyl)-5,6,7,8-tetrahydro[1,2,4]triazolo [4,3-a]pyrazine]"
5,< 501,"CNc1nnc2n1CCN(C(=O)c1cccc(C(F)(F)F)c1Cl)C2 [Example 21, 7-{[2-chloro-3-(trifluoromethyl)phenyl]carbonyl}-N-methyl-5,6,7,8-tetrahydro[1,2,4]triazolo [4,3-a]pyrazine-3-amine]"
6,< 501,"O=C(c1cccc(C(F)(F)F)c1Cl)N1CCn2c(nnc2N2CCOCC2)C1 [Example 18, 7-{[2-Chloro-3-(trifluoromethyl)phenyl]carbonyl}-3-(4-morpholinyl)-5,6,7,8-tetrahydro[1,2,4]triazolo[4,3-a]pyrazine]"
7,< 100,"O=C(c1ccc(Cl)c(C(F)(F)F)c1)N1CCn2c(nnc2-c2cnccn2)C1 [Example 104, 7-{[4-chloro-3-(trifluoromethyl)phenyl]carbonyl}-3-(2-pyrazinyl)-5,6,7,8-tetrahydro[1,2,4]triazolo [4,3-a]pyrazine]"
8,< 100,"Cc1c(C(=O)N2CCn3c(nnc3-c3ncns3)C2)ccc(F)c1F [Example 202, 7-[(3,4-Difluoro-2-methylphenyl)carbonyl]-3-(1,2,4-thiadiazol-5-yl)-5,6,7,8-tetrahydro[1,2,4]triazolo[4,3-a]pyrazine]"
9,< 100,"O=C(c1cccc(F)c1F)N1CCn2c(nnc2-c2ccccn2)C1 [Example 88, 7-[(2,3-difluorophenyl)carbonyl]-3-(2-pyridinyl)-5,6,7,8-tetrahydro[1,2,4]triazolo [4,3-a]pyrazine]"
10,< 10,"O=C(c1ccc(F)cc1Cl)N1CCn2c(nnc2-c2cscn2)C1 [Example 90, 7-[(2-chloro-4-fluorophenyl)carbonyl]-3-(1,3-thiazol-4-yl)-5,6,7,8-tetrahydro[1,2,4]triazolo [4,3-a]pyrazine]"
